Source: US6482412B1, “Polypeptide having human HIV inhibitory activity, a gene encoding the polypeptide, a method to produce the polypeptide” (Gakkou Houjin Kitasato Gakuen, priority 1999, dated 2002)
In brackets after ≈: the same amount, converted by molar mass.

Experiments:
Type in all cases: cell-based
[1] = system: syncytium formation by fusion of HeLa/CD4/LTR cells and HeLa135/env (T-tropic HIV-1)/Tat cells; test: cells; details: Human immunodeficiency virus 1, HeLa, read-out: IC50 of syncytium formation ability
Protocol: 50 μl of HeLa/CD4 /LTR cell suspension prepared to 1.6×10^5 cells/ml was inoculated into every each well of 96 well plate (IWAKI MICROPLATE 96well), and 10 μl of the sample, diluted in a series of concentration with phosphate buffer physiological saline, was added to every each well. Then, 50 μl of HeLa135/env(envelope glycoprotein: originated from T-tropic HIV-1)/Tat cell suspension prepared to 1.6×10^5 cells/ml was dispensed to every well, and incubated in an incubator at 37° C. under 5% CO2 air current for 24 hours. After removal of the culture fluid from each well, 20 μl of cell lysis solution was added to every each well, and the plate was left at the room temperature for about 10 minutes.
Continuously, 100 μl of chromogenic substrate solution (Z-buffer: 80 μl+4 mg/ml o-nitrophenyl-β-D-glactopyranoside:20 μl) was added to each well, and reacted in the incubator at 37° C. […] After 80 minutes, 25 μl of reaction stop solution (2M Na2CO3) was added to it, and the absorbance at 405 nm was measured using colorimeter (Organ ON SystemMicrowell System Reader 510). Syncytium formation ability was calculated from the obtained absorbance by the following formula.
Syncytium formation ability=the absorbance of the well with sample addition/absorbance of control×100

HIV infected MT-4 cell = test: Anti-HIV activity by suppression of cytopathic effect, MTT method; details: Human immunodeficiency virus 1, MT4, 120 h, read-out: BC50
Protocol: (§1) Anti-HIV activity was measured from suppression of cytopathic effect caused by HIV infection. The HIV infected MT-4 cell (2.5×10^4 cells/well, degree of multiple infection: 0.01) was added to 96 well titer plate immediately after infection. At the same time, K97-0003 peptide of various concentration was also added to the plate. In order to examine cytopathic effect of K97-0003 peptide on MT-4 cell, cells uninfected by HIV was incubated with K97-0003 peptide of various concentrations in the same manner. After five days of incubation at 37° C. in a CO2 incubator, the number of cell survived was measured by MTT method.
(1) EC50: It is the concentration of K97-0003 peptide which inhibits 50% of the cytotoxicity by HIV infection, and is the parameter of anti-HIV activity of the peptide.

[2] = Cytotoxicity on uninfected MT-4 cells, MTT method; details: human, five days
Protocol: as §1
(2) CC50: It is the concentration of K97-0003 peptide that causes cytotoxicity to 50% of cells, and is the parameter of cytotoxic effect of the peptide.

CN1C(=O)[C@@H](c2cc(Cl)c(O)c(Cl)c2)NC(=O)[C@@H]2NC(=O)[C@@H](c3cc(Cl)c(O)c(Cl)c3)NC(=O)[C@H](NC(=O)C(=O)c3cc(Cl)c(O)c(Cl)c3)Cc3c[nH]c4c(cccc34)-c3cc2cc(c3O)Oc2ccc(cc2)C[C@H]1C(=O)N[C@@H](C(=O)O)c1ccc(O)cc1 [Chloropeptine, chloropeptin, reference compound]
IC50 [1]: 1.7 mg/L (≈ 1.28 µM)
EC50 (HIV infected MT-4 cell): 1.6 µM
CC50 at 5 days [2]: > 600 µM
